From PubChem BioAssay AID248 (DTP/NCI, 2004)
“And” between values parts separate entries of the source, which are not always exact repeats. Equal values may be shown once. Inconclusive results and toxic doses are left out. Cut-off read from the data, not from the text of the source: active = T/C of 150% or more; inactive = T/C below 125%.

System: L1210 leukemia ip in BDF1 mice, survival T/C
Assay: NCI In Vivo Anticancer Drug Screen. Data for tumor model L1210 Leukemia (intraperitoneal) in B6D2F1 (BDF1) mice
Settings: endpoint: mean survival time, higher = longer survival
Outline: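 Survival endpoint. Drug-treated group vs vehicle group, expressed as T divided by C. Tumor passaged by transplantation.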

[1] = dose: 100.0 mg/kg/injection, schedule: Q01DX001 (ip), vehicle: carboxymethylcellulose (CMC)
[2] = dose: 200.0 mg/kg/injection, schedule: Q01DX001 (ip), vehicle: carboxymethylcellulose (CMC)
[3] = dose: 100.0 mg/kg/injection, schedule: Q04DX003 (ip), vehicle: Klucel (hydroxypropylcellulose) (HPC)
[4] = dose: 200.0 mg/kg/injection, schedule: Q04DX003 (ip), vehicle: Klucel (hydroxypropylcellulose) (HPC)
[5] = dose: 400.0 mg/kg/injection, schedule: Q04DX003 (ip), vehicle: Klucel (hydroxypropylcellulose) (HPC)
[6] = dose: 100.0 mg/kg/injection, schedule: Q04DX003 (ip), vehicle: saline
[7] = dose: 200.0 mg/kg/injection, schedule: Q04DX003 (ip), vehicle: saline
[8] = dose: 400.0 mg/kg/injection, schedule: Q04DX003 (ip), vehicle: saline
[9] = dose: 50.0 mg/kg/injection, schedule: Q04DX003 (ip), vehicle: saline
[10] = dose: 100.0 mg/kg/injection, schedule: Q01DX001 (ip), vehicle: Klucel (hydroxypropylcellulose) (HPC)
[11] = dose: 100.0 mg/kg/injection, schedule: Q01DX009 (ip), vehicle: Klucel (hydroxypropylcellulose) (HPC)
[12] = dose: 200.0 mg/kg/injection, schedule: Q01DX001 (ip), vehicle: Klucel (hydroxypropylcellulose) (HPC)
[13] = dose: 200.0 mg/kg/injection, schedule: Q01DX009 (ip), vehicle: Klucel (hydroxypropylcellulose) (HPC)
[14] = dose: 400.0 mg/kg/injection, schedule: Q01DX001 (ip), vehicle: Klucel (hydroxypropylcellulose) (HPC)
[15] = dose: 400.0 mg/kg/injection, schedule: Q01DX009 (ip), vehicle: Klucel (hydroxypropylcellulose) (HPC)
[16] = dose: 100.0 mg/kg/injection, schedule: Q01DX001 (ip), vehicle: saline
[17] = dose: 200.0 mg/kg/injection, schedule: Q01DX001 (ip), vehicle: saline
[18] = dose: 400.0 mg/kg/injection, schedule: Q01DX001 (ip), vehicle: saline
[19] = dose: 10.0 mg/kg/injection, schedule: Q01DX001 (ip), vehicle: saline
[20] = dose: 100.0 mg/kg/injection, schedule: Q04DX003 (ip), vehicle: saline with Tween-80
[21] = dose: 200.0 mg/kg/injection, schedule: Q04DX003 (ip), vehicle: saline with Tween-80
[22] = dose: 400.0 mg/kg/injection, schedule: Q04DX003 (ip), vehicle: saline with Tween-80

Measured: T/C

CCOC(=O)c1ccc(OC(=O)Nc2ccc(F)cc2)cc1
inactive: dose: 50.0 mg/kg/injection, schedule: Q01DX001 (ip), vehicle: carboxymethylcellulose (CMC) 106 % of control | dose: 50.0 mg/kg/injection, schedule: Q01DX009 (ip), vehicle: carboxymethylcellulose (CMC) 96 % of control and 105 % of control | dose: 50.0 mg/kg/injection, schedule: Q04DX002 (ip), vehicle: carboxymethylcellulose (CMC) 95 % of control and 103 % of control | [1] 104 % of control | dose: 100.0 mg/kg/injection, schedule: Q01DX009 (ip), vehicle: carboxymethylcellulose (CMC) 95 % of control and 99 % of control | dose: 100.0 mg/kg/injection, schedule: Q04DX002 (ip), vehicle: carboxymethylcellulose (CMC) 95 % of control and 107 % of control | [2] 101 % of control | dose: 200.0 mg/kg/injection, schedule: Q01DX009 (ip), vehicle: carboxymethylcellulose (CMC) 94 % of control | dose: 200.0 mg/kg/injection, schedule: Q04DX002 (ip), vehicle: carboxymethylcellulose (CMC) 103 % of control and 88 % of control

CC(=O)N(C)c1ccc(NC(=O)Nc2ccc(C)cc2[N+](=O)[O-])cc1
inactive: [3] 94 % of control | [4] 94 % of control | [5] 94 % of control

CC(=O)N1CCOCC1
inactive: [6] 93 % of control | [7] 98 % of control | [8] 102 % of control

O=C(Nc1c(Oc2ccc(Cl)cc2)ccc(Cl)c1S(=O)(=O)O)Nc1c(Oc2ccc(Cl)c(Cl)c2)ccc(Cl)c1S(=O)(=O)O
inactive: [9] 97 % of control | [6] 90 % of control | [7] 95 % of control

c1ccc(C2=Nc3ccccc3NC2c2ccccc2)cc1 (stereo not given)
inactive: dose: 50.0 mg/kg/injection, schedule: Q04DX003 (ip), vehicle: Klucel (hydroxypropylcellulose) (HPC) 100 % of control | [3] 89 % of control | [4] 98 % of control

NC(CCc1cc(O)ccc1O)C(=O)O (stereo not given)
inactive: [6] 105 % of control | [7] 107 % of control | [8] 98 % of control

O=c1c(O)cccc2cc(O)c(O)c(O)c12
inactive: dose: 12.5 mg/kg/injection, schedule: Q01DX009 (ip), vehicle: saline 100 % of control | dose: 25.0 mg/kg/injection, schedule: Q01DX009 (ip), vehicle: saline 94 % of control and 97 % of control and 107 % of control | dose: 50.0 mg/kg/injection, schedule: Q01DX009 (ip), vehicle: saline 95 % of control and 101 % of control (2×) | dose: 100.0 mg/kg/injection, schedule: Q01DX009 (ip), vehicle: saline 101 % of control | dose: 200.0 mg/kg/injection, schedule: Q01DX009 (ip), vehicle: saline 94 % of control and 92 % of control

O=c1[nH]c(=O)n(C2SC(CO)C(O)C2O)cc1F (stereo not given)
inactive: dose: 18.8 mg/kg/injection, schedule: Q04DX003 (ip), vehicle: saline 102 % of control | dose: 37.5 mg/kg/injection, schedule: Q04DX003 (ip), vehicle: saline 94 % of control | [9] 94 % of control | dose: 100.0 mg/kg/injection, schedule: Q01DX005 (ip), vehicle: saline 97 % of control | dose: 200.0 mg/kg/injection, schedule: Q01DX005 (ip), vehicle: saline 95 % of control

O=C(NNC(=O)c1ccc(Br)cc1)c1ccc(Cl)cc1
inactive: [10] 100 % of control | [11] 91 % of control | [12] 92 % of control | [13] 93 % of control | [14] 92 % of control

CCCCCN(CCCCC)C(=O)c1ccc([N+](=O)[O-])cc1
inactive: [11] 97 % of control | [3] 100 % of control | [13] 97 % of control | [4] 96 % of control | [15] 94 % of control | [5] 105 % of control

CC(C)(C)CC(C)(C)c1ccc(OCCOc2ccc([N+](=O)[O-])cc2N)cc1
inactive: [11] 97 % of control | [3] 98 % of control | [13] 97 % of control | [4] 93 % of control | [15] 101 % of control | [5] 86 % of control

CCOC(=O)c1cccnc1N(C(=O)c1ccccc1)C(=O)c1ccccc1
inactive: dose: 100.0 mg/kg/injection, schedule: Q04DX002 (ip), vehicle: Klucel (hydroxypropylcellulose) (HPC) 95 % of control | dose: 200.0 mg/kg/injection, schedule: Q04DX002 (ip), vehicle: Klucel (hydroxypropylcellulose) (HPC) 95 % of control | dose: 400.0 mg/kg/injection, schedule: Q04DX002 (ip), vehicle: Klucel (hydroxypropylcellulose) (HPC) 89 % of control

CCCCCCCC(C)NCCO (stereo not given)
inactive: dose: 75.0 mg/kg/injection, schedule: Q01DX001 (ip), vehicle: carboxymethylcellulose (CMC) 98 % of control

CC1(C)C(=NNC(N)=O)C(C)(C)C1=NNC(N)=O
inactive: [16] 96 % of control | [3] 91 % of control | [17] 94 % of control | [18] 90 % of control

CC(=O)/C(C)=N/O
inactive: [16] 98 % of control | [17] 98 % of control | [18] 96 % of control

CC1(C)CCC2(C)CCCCC2C1O (stereo not given)
inactive: dose: 50.0 mg/kg/injection, schedule: Q04DX002 (ip), vehicle: saline with Tween-80 92 % of control | dose: 100.0 mg/kg/injection, schedule: Q04DX002 (ip), vehicle: saline with Tween-80 96 % of control | dose: 200.0 mg/kg/injection, schedule: Q04DX002 (ip), vehicle: saline with Tween-80 101 % of control

O=C1c2ccccc2C(=O)N1c1ccccc1-c1ccccc1
inactive: dose: 25.0 mg/kg/injection, schedule: Q01DX001 (ip), vehicle: Klucel (hydroxypropylcellulose) (HPC) 95 % of control | dose: 50.0 mg/kg/injection, schedule: Q01DX001 (ip), vehicle: Klucel (hydroxypropylcellulose) (HPC) 103 % of control | [10] 101 % of control and 121 % of control | [12] 93 % of control and 97 % of control | [14] 89 % of control

CN1C2CCC1C(O)C(c1ccccc1)C2 (stereo not given)
inactive: [19] 106 % of control | dose: 20.0 mg/kg/injection, schedule: Q01DX001 (ip), vehicle: saline 101 % of control | dose: 40.0 mg/kg/injection, schedule: Q01DX001 (ip), vehicle: saline 106 % of control

CNC(=O)O/N=C(/SC)C(C)C
inactive: dose: 5.0 mg/kg/injection, schedule: Q01DX001 (ip), vehicle: saline 100 % of control | [19] 100 % of control

CCOC(CCC#N)c1ccccc1 (stereo not given)
inactive: [20] 95 % of control | dose: 125.0 mg/kg/injection, schedule: Q01DX009 (ip), vehicle: saline with Tween-80 113 % of control | [21] 98 % of control | dose: 235.0 mg/kg/injection, schedule: Q01DX009 (ip), vehicle: saline with Tween-80 96 % of control | [22] 92 % of control

C=CS(=O)(=O)Cc1ccc(Cl)cc1
inactive: dose: 10.0 mg/kg/injection, schedule: Q04DX002 (ip), vehicle: Klucel (hydroxypropylcellulose) (HPC) 117 % of control | dose: 20.0 mg/kg/injection, schedule: Q04DX002 (ip), vehicle: Klucel (hydroxypropylcellulose) (HPC) 106 % of control | dose: 40.0 mg/kg/injection, schedule: Q04DX002 (ip), vehicle: Klucel (hydroxypropylcellulose) (HPC) 98 % of control

CN(C)S(=O)(=O)c1ccccc1C1(O)CCCCC1
inactive: dose: 100.0 mg/kg/injection, schedule: Q01DX009 (ip), vehicle: other 87 % of control | [20] 91 % of control | dose: 200.0 mg/kg/injection, schedule: Q01DX009 (ip), vehicle: other 94 % of control | [21] 102 % of control | dose: 400.0 mg/kg/injection, schedule: Q01DX009 (ip), vehicle: other 97 % of control | [22] 109 % of control

CC1NCc2c(N)nc(N)nc21 (stereo not given)
inactive: [1] 98 % of control | [2] 95 % of control | dose: 400.0 mg/kg/injection, schedule: Q01DX001 (ip), vehicle: carboxymethylcellulose (CMC) 98 % of control

CNc1ccccc1C(=O)N/N=C/c1c(O)ccc2ccccc12
inactive: dose: 100.0 mg/kg/injection, schedule: Q04DX002 (ip), vehicle: saline 99 % of control | dose: 200.0 mg/kg/injection, schedule: Q04DX002 (ip), vehicle: saline 96 % of control | dose: 400.0 mg/kg/injection, schedule: Q04DX002 (ip), vehicle: saline 96 % of control
